Results taken from publication PMC12652692, “Synthesis and In Vitro Anticancer Evaluation of Novel Phosphonium Derivatives of Chrysin” (International Journal of Molecular Sciences, 2025).
“Also recorded” adds a separate entry of the source. Read-outs that look alike come from different tables or passages of the source.

Assays:
[1] = test system: panel of human malignant cell lines of gynecological origin; test: MTT antiproliferative assay, whole panel; format: cell-based; conditions: for inhibition at 10 µM / IC50: Homo sapiens; for inhibition at 10 µM: across the tested cell lines, read-out: inhibition rates; for IC50: HeLa, SiHa, MCF-7, MDA-MB-231, A2780, read-out: IC50 values (range over cancer cell lines)
Source text: (§1) As the NCI has not been accepting compound submissions from investigators outside the USA for NCI-60 testing since 2024, chrysin derivatives 3i, 3j, and 5 were instead evaluated in additional viability assays against a simplified panel of human cancer cell lines representing breast (MCF-7 and MDA-MB-231), cervical (HeLa and SiHa), and ovarian cancers. A nonmalignant fibroblast cell line (NIH/3T3) was also used to obtain preliminary results describing the cancer selectivity of the test substances. […] The two effective agents were further investigated using a broad concentration range (0.1–30 µM), and their IC50 values were calculated (Table 3).
Besides the cell growth-inhibiting potency, cancer selectivity is a crucial factor determining the perspective of a drug candidate. This property is expressed as a selectivity ratio, i.e., the ratio of the compound’s IC50 obtained on the non-cancerous fibroblasts and those from the cancer cell lines. A higher ratio indicates more promising cancer selectivity (Table 3). […] Based on these efficacy and selectivity data, further cell-based studies were performed with 3i against MCF-7 breast cancer cells.
(§2) The cell growth-inhibiting properties of compounds 3i, 3j, and 5 were determined by means of the MTT assay against a panel of human malignant cell lines of gynecological origin [8, 27, 40]. The panel included breast (MCF-7 and MDA-MB-231; Cellosaurus accessions: CVCL_0031 and CVCL_0062, respectively), cervical (HeLa and SiHa; CVCL_0030 and CVCL_0032, respectively), and ovarian (A2780; CVCL_0134) cell lines. Nonmalignant murine NIH/3T3 (CVCL_0594) fibroblasts were also used to obtain results characterizing the cancer selectivity of the tested substances. The whole assay was performed as described earlier. […] All applied cell lines were obtained from the European Collection of Cell Cultures (Salisbury, UK), except for SiHa (American Tissue Culture Collection, Manassas, VA, USA). Cisplatin, a clinically available anticancer drug, was included as a reference compound. All experiments were conducted twice, with at least five replicates per condition.

NIH/3T3 (fibroblast) [2] = test: MTT antiproliferative assay; format: cell-based, murine; conditions: Mus musculus; for inhibition at 10 µM: NIH3T3, 10 μM; for IC50: NIH3T3, read-out: IC50 Value (μM) ± SEM
Source text: as §1, §2

MCF-7 [3] = test: MTT antiproliferative assay; format: cell-based, human; conditions: for inhibition at 10 µM / inhibition at 30 µM / IC50: Homo sapiens, MCF7; for inhibition at 10 µM: MCF-7, 10 μM; for inhibition at 30 µM: MCF-7, 30 μM; for IC50: MCF-7, read-out: IC50 Value (μM) ± SEM; for Selectivity Ratio: IC50 on NIH/3T3 fibroblasts / IC50 on MCF-7
Source text: as §1, §2

SiHa [4] = test: MTT antiproliferative assay; format: cell-based, human; conditions: for IC50 / inhibition at 10 µM / inhibition at 30 µM: Homo sapiens, SiHa; for IC50: read-out: IC50 Value (μM) ± SEM; for Selectivity Ratio: IC50 on NIH/3T3 fibroblasts / IC50 on SiHa
Source text: as §1, §2

HeLa [5] = test: MTT antiproliferative assay; format: cell-based, human; conditions: for IC50 / inhibition at 10 µM / inhibition at 30 µM: Homo sapiens, HeLa; for IC50: read-out: IC50 Value (μM) ± SEM; for Selectivity Ratio: IC50 on NIH/3T3 fibroblasts / IC50 on HeLa
Source text: as §1, §2

MDA-MB-231 [6] = test: MTT antiproliferative assay; format: cell-based, human; conditions: for IC50 / inhibition at 10 µM / inhibition at 30 µM: Homo sapiens; for IC50: read-out: IC50 Value (μM) ± SEM; for inhibition at 10 µM: MDA-MB-231, 10 μM; for inhibition at 30 µM: MDA-MB-231, 30 μM; for Selectivity Ratio: IC50 on NIH/3T3 fibroblasts / IC50 on MDA-MB-231
Source text: as §1, §2

A2780 [7] = test: MTT antiproliferative assay; format: cell-based, human; conditions: for IC50 / inhibition at 10 µM / inhibition at 30 µM: Homo sapiens; for IC50: read-out: IC50 Value (μM) ± SEM; for inhibition at 10 µM: A2780, 10 μM; for inhibition at 30 µM: A2780, 30 μM; for Selectivity Ratio: IC50 on NIH/3T3 fibroblasts / IC50 on A2780
Source text: as §1, §2

MCF-7 cells [8] = test: Cell cycle analysis by flow cytometry; format: cell-based, human; conditions: MCF-7, 0.3 and 0.6 µM
Description: The observed cell cycle disturbance is consistent with a blockade at the G1–S transition, which triggers apoptotic cell death.
Cell cycle analysis by flow cytometry was applied to characterize the effects of 3i on the phase distribution of the treated cells. MCF-7 cells were seeded onto 12-well plates (200,000 cells/well) and incubated overnight. They were then treated with 0.3 or 0.6 μM for 24 or 48 h. After the treatment, the propidium iodide-labeled cells were analyzed using a CytoFLEX instrument (Beckman Coulter, Brea, CA, USA), and at least 20,000 cells per sample were evaluated, as described in a recent publication. The obtained data were processed using ModFit LT 3.3.11 software (Verity Software House, Topsham, ME, USA) as referenced by Vermes et al..

MCF-7 cells [9] = test: Wound-healing assay (migration); format: cell-based, human
Description: The effect of the selected compound on the migration of MCF-7 cells was investigated by means of the wound-healing assay.
The effect of substance 3i on the migration of the treated cancer cells was determined using a wound-healing assay, as presented earlier. Briefly, MCF-7 cells were trypsinized and plated into wound assay chambers (ibidi GmbH, Martinsried, Germany) at a density of 40,000 cells/insert, and the plate was incubated under standard conditions to allow proper attachment. Then, the inserts were carefully removed, and the cells were subsequently treated with 3i in fresh medium containing 2% FBS. The cell migration was recorded using a phase-contrast inverted microscope (Nikon Instruments Europe, Amstelveen, The Netherlands) fitted with a CCD camera (QImaging MicroPublisher Color RTV5.0 Teledyne Photometrics, Tucson, AZ, USA). The cell-free areas in treated samples and controls were determined using ImageJ software 1.54d (National Institutes of Health, Bethesda, MD, USA). The assays were performed in triplicates and all the statistical analyses were carried out by means of GraphPad Prism software.

SiHa [10] = test system: SiHa; set-up: method as in PMID 40332477; conditions: published earlier ref 8, read-out: IC50 Value (μM) ± SEM; cited from earlier work
MDA-MB-231 [11] = test system: MDA-MB-231; set-up: method as in PMID 40332477; conditions: published earlier ref 8, read-out: IC50 Value (μM) ± SEM; cited from earlier work
A2780 [12] = test system: A2780; set-up: method as in PMID 40332477; conditions: published earlier ref 8, read-out: IC50 Value (μM) ± SEM; cited from earlier work
HeLa [13] = test system: HeLa; set-up: method as in PMID 40332477; conditions: published earlier ref 8, read-out: IC50 Value (μM) ± SEM; cited from earlier work
MCF-7 [14] = test system: MCF-7; set-up: method as in PMID 40332477; conditions: published earlier ref 8, read-out: IC50 Value (μM) ± SEM; cited from earlier work
NIH/3T3 (fibroblast) [15] = test system: NIH/3T3 (fibroblast); set-up: method as in PMID 40332477; conditions: published earlier ref 8, read-out: IC50 Value (μM) ± SEM; cited from earlier work
[16] = read-out: Growth Inhibition (%) ± SEM
[17] = NIH3T3, 30 μM, read-out: Growth Inhibition (%) ± SEM
[18] = read-out: Growth Inhibition (%) ± SEM (converted)
[19] = heading: Growth Inhibition ± SEM
[20] = MDA-MB-231, heading: Growth Inhibition ± SEM
[21] = A2780, heading: Growth Inhibition ± SEM

IC50 (MCF-7 [3]) [µM] | IC50 (HeLa [5]) [µM] | IC50 (MDA-MB-231 [6]; MDA-MB-231) [µM] | SMILES | inhibition at 10 µM [1] [%] | IC50 [1] [nM] | inhibition at 10 µM (NIH/3T3 (fibroblast) [2]; [16]) [%] | inhibition at 30 µM (NIH/3T3 (fibroblast) [2]; [17]) [%] | IC50 (NIH/3T3 (fibroblast) [2]) [µM] | inhibition at 10 µM (MCF-7 [3]; [16]) [%] | inhibition at 30 µM (MCF-7 [3]; [16]) [%] | Selectivity Ratio (MCF-7 [3]) | IC50 (SiHa [4]) [µM] | inhibition at 10 µM (SiHa [4]; [16]) [%] | inhibition at 30 µM (SiHa [4]; [18]) [%] | Selectivity Ratio (SiHa [4]) | inhibition at 10 µM (HeLa [5]; [16]) [%] | inhibition at 30 µM (HeLa [5]; [18]) [%] | Selectivity Ratio (HeLa [5]) | Selectivity Ratio (MDA-MB-231 [6]) | Selectivity Ratio (A2780 [7]) | further results
0.26 ± 0.02 | 1.08 ± 0.02 | 0.54 ± 0.02 | COc1ccccc1[P+](CCCCOc1cc(O)c2c(=O)cc(-c3ccccc3)oc2c1)(c1ccccc1)c1ccccc1 [3i] | > 80 | 260 to 1150 | 97.73 ± 0.53 | 98.5 | 1.66 ± 0.15 | 95.4 ± 1.54 | 95.8 ± 1.46 | 6.38 | 1.15 ± 0.03 | 83.2 ± 2.13 | 104 | 1.44 | 96.5 ± 2.76 | 98.9 | 1.54 | 3.07 | 2.52 | inhibition at 10 µM (MDA-MB-231 [6]; [16]): 88.6 ± 3.72%; inhibition at 30 µM (MDA-MB-231 [6]; [18]): 87.4%; IC50 (A2780 [7]; A2780): 0.66 ± 0.03 µM; inhibition at 10 µM (A2780 [7]; [16]): 96.85 ± 0.37%; inhibition at 30 µM (A2780 [7]; [18]): 98.3%; cell cycle distribution (MCF-7 cells [8]; 24 h): significantly increased the proportion of the G0/G1 cell population; cell cycle distribution (MCF-7 cells [8]; 48 h): statistically significant accumulation of the hypodiploid (SubG1) cell population; inhibition of migration (MCF-7 cells [9]; MCF-7, 24 h): significant inhibition in the migration capacity at a concentration of 0.3 μM only; inhibition of migration (MCF-7 cells [9]; MCF-7, 48 h): significant even at subantiproliferative concentration (0.1 μM)
0.88 ± 0.01 | 2.93 ± 0.02 | 1.24 ± 0.02 | CC(C)(C)[P+](CCCCOc1cc(O)c2c(=O)cc(-c3ccccc3)oc2c1)(c1ccccc1)c1ccccc1 [3j] | > 80 | 880 to 2930 | 98.38 ± 0.53 | 99 | 1.96 ± 0.01 | 98.65 ± 0.29 | 98.68 ± 0.32 | 2.23 | 1.47 ± 0.01 | 97.91 ± 0.06 | 97.81 ± 0.46 | 1.33 | 96.64 ± 0.26 | 97.5 | 0.67 | 1.58 | 1.43 | inhibition at 10 µM (MDA-MB-231 [6]; [16]): 98 ± 1.03%; inhibition at 30 µM (MDA-MB-231 [6]; [18]): 98.1 ± 0.13%; IC50 (A2780 [7]; A2780): 1.37 ± 0.04 µM; inhibition at 10 µM (A2780 [7]; [16]): 98.77 ± 0.19%; inhibition at 30 µM (A2780 [7]; [18]): 98.96 ± 0.381%
– | – | – | N.N.[Cl][Pt][Cl] [Cisplatin] | – | – | – | – | – | – | – | 1.04 | – | – | – | 0.17 | – | – | 0.20 | 0.14 | 1.93 | IC50 (SiHa [10]): 15.5 ± 0.93 µM; IC50 (MDA-MB-231 [11]): 19.13 ± 0.12 µM; IC50 (A2780 [12]): 1.4 ± 0.11 µM; IC50 (HeLa [13]): 13.6 ± 0.44 µM; IC50 (MCF-7 [14]): 2.6 ± 0.17 µM; IC50 (NIH/3T3 (fibroblast) [15]): 2.7 ± 0.3 µM
– | – | – | O=C(CC(c1ccccc1)(c1ccccc1)c1ccccc1)Oc1cc(O)c2c(=O)cc(-c3ccccc3)oc2c1 [compound 5] | – | – | > 10 | – | – | – | – | – | – | – | – | – | – | – | – | – | – | cell growth-inhibiting effect (in words) ([1]; 10 and 30 μM): ineffective; also recorded: no cytotoxicity; inhibition at 30 µM (NIH/3T3 (fibroblast) [2]; NIH3T3, heading: Growth Inhibition ± SEM, 30 μM): < 10%; inhibition at 10 µM (MCF-7 [3]; [19]): < 10%; inhibition at 30 µM (MCF-7 [3]; [19]): < 10%; inhibition at 10 µM (SiHa [4]; [19]): < 10%; inhibition at 30 µM (SiHa [4]; [19]): < 10%; inhibition at 10 µM (HeLa [5]; [19]): < 10%; inhibition at 30 µM (HeLa [5]; [19]): < 10%; inhibition at 10 µM (MDA-MB-231 [6]; [20]): < 10%; inhibition at 30 µM (MDA-MB-231 [6]; [20]): < 10%; inhibition at 10 µM (A2780 [7]; [21]): < 10%; inhibition at 30 µM (A2780 [7]; [21]): < 10%
